Reference: the supplement of paper PMC10290057
Counter-ions that a name gives are not always drawn.

Tests used:
HCT116 [1] = assay: AC50 cell viability (CellTiter-Glo); higher = less potent; conditions: 48 h
HCT116 [2] = assay: efficacy (fitted maximal change in viability relative to DMSO control); higher = less cytotoxic (negative = loss of viability); conditions: 48 h
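Wherever AC50 cell viability (CellTiter-Glo) is given: HCT116 colorectal carcinoma cells screened at five concentrations per compound, luminescent viability scaled between DMSO wells and empty wells on each plate, curves fitted per compound.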
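Wherever efficacy (fitted maximal change in viability relative to DMSO control) is given: Luminescence-based viability readout, five doses per compound, normalized against on-plate DMSO and empty-well controls, followed by dose-response curve fitting for every drug.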

SMILES | AC50 cell viability (HCT116 [1]) | efficacy (HCT116 [2])
CONC(=O)Nc1ccc(-c2sc3c(c2CN(C)C)c(=O)n(-c2ccc(OC)nn2)c(=O)n3Cc2c(F)cccc2F)cc1 [Relugolix] | 23.5 µM | -67.3%
C[C@@]12C(=O)OC(=O)[C@]1(C)[C@H]1CC[C@@H]2O1 [Cantharidin] | 9.34 µM | -86.9%
O=C1Nc2nc(-c3c(O)cccc3OCC3CC3)cc([C@@H]3CCCNC3)c2CO1 [Bay-65-1942 hydrochloride] | 9.34 µM | -90.5%
Nc1ccc(F)cc1NC(=O)c1ccc(CNC(=O)/C=C/c2cccnc2)cc1 [Chidamide] | 5.9 µM | -90.4%
NC[C@@](O)(c1ccc(Cl)cc1)c1ccc(-c2cn[nH]c2)cc1 | 7.42 µM | -109%
CC(=O)c1cc2c(o1)C(=O)c1ccccc1C2=O [Napabucasin] | 0.934 µM | -93.8%
CC(C)C[C@H](NC(=O)[C@H](CCc1ccccc1)NC(=O)CN1CCOCC1)C(=O)N[C@@H](Cc1ccccc1)C(=O)N[C@@H](CC(C)C)C(=O)[C@@]1(C)CO1 [Carfilzomib] | 0.0118 µM | -93.6%
COc1cc(CCc2cc(NC(=O)c3ccc(N4C[C@@H](C)N[C@@H](C)C4)cc3)n[nH]2)cc(OC)c1 [AZD-4547] | 10.5 µM | -98.5%
C[C@@H](O)[C@@H](C)Oc1nc(Nc2ccc([S+](=N)([O-])C3CC3)cc2)ncc1C(F)(F)F (some centres undefined) [Roniciclib] | 18.6 µM | -94%
CC[C@]12\C=C/CN3CC[C@]4([C@@H](N(C)C5=CC(=C(C=C45)[C@]6(C[C@H]7C[C@H](CN(C7)CC8=C6[NH]C9=C8C=CC=C9)C(C)(F)F)C(=O)OC)OC)[C@](O)([C@@H]1OC(C)=O)C(=O)OC)[C@H]23 [Vinflunine] | 0.0986 µM | -64.1%
Cc1ccc(F)c(NC(=O)Nc2ccc(-c3cccc4[nH]nc(N)c34)cc2)c1 [Linifanib] | 9.34 µM | -90.4%
CC1=C(C)C\2=C(S1)[N]3C(=NN=C3C(CC(=O)NC4=CC=C(O)C=C4)\N=C2C5=CC=C(Cl)C=C5)C (centres undefined) [Birabresib] | 0.833 µM | -80.8%
C#Cc1cccc(Nc2ncnc3cc(OC)c(OCCCCCCC(=O)NO)cc23)c1 [CUDC-101] | 0.332 µM | -81.3%
Cn1cnc([N+](=O)[O-])c1Sc1ncnc2nc[nH]c12 [Azathioprine] | 2.63 µM | -83.7%
CCN1/C(=C/C(C)=O)Sc2ccc(OC)cc21 [TG-003] | 14.8 µM | -41.4%
COc1cccc2cc(-c3nc([C@H]4CC[C@H](C(=O)O)CC4)n4ncnc(N)c34)[nH]c12 [OSI-027] | 11.8 µM | -94.5%
OC[C@H]1O[C@@H]2[C@@H](OC\3=N\C(=N)\C=C/[N@@]23)[C@@H]1O [Cyclocytidine hydrochloride] | 0.186 µM | -59.3%
COc1nc(OCc2cccc(-c3ccccc3)c2C)ccc1CNCCNC(C)=O [BMS-202] | 14.8 µM | -89.9%
C[C@H](NC(=O)c1sccc1OCc1ccc(Cl)cc1)c1ccccc1 | 16.6 µM | -50.9%
COc1ccccc1C(=O)Nc1cc2c(cc1N1CCNC[C@H]1C)n(C)c(=O)n2C [GSK-6853] | 16.6 µM | -63.8%
Cc1ccc(NC(=O)c2ccc(CN3CCN(C)CC3)cc2)cc1Nc1nccc(-c2cccnc2)n1 [Imatinib] | 16.6 µM | -85%
Cn1c(CCCCCCC(=O)NO)nc2cc(N(CCCl)CCCl)ccc21 [Tinostamustine] | 2.95 µM | -84.7%
CC(C)(C)Sc1c(CC(C)(C)C(=O)O)n(Cc2ccc(Cl)cc2)c2ccc(OCc3ccc4ccccc4n3)cc12 [MK591] | 20.9 µM | -88.4%
CC(C)OC1=C(F)C=C(C=C1)C2=N[N]([C@@H](C)C/3=C(C4=CC(=CC=C4)F)/C(=O)C5=CC(=CC=C5O3)F)C6=C2C(=NC=N6)N [Umbralisib] | 14.8 µM | -35.3%
Nc1ccc(/C=C/C(=O)NCc2cc3cc(-c4ccc(C(=O)N5CCC(F)(F)CC5)cc4)cc(-c4ccc(F)cc4)c3o2)cn1 [KPT-9274] | 0.59 µM | -91.7%
CN1CCN(c2ccc(C(=O)Nc3n[nH]c4ccc(Cc5cc(F)cc(F)c5)cc34)c(NC3CCOCC3)c2)CC1 [Entrectinib] | 5.25 µM | -101%

SMILES | AC50 cell viability (HCT116 [1]) | efficacy (HCT116 [2])
CC(C)n1ncnc1-c1cn2c(n1)-c1ccc(O[C@@H](C)C(N)=O)cc1OCC2 [GDC-0326] | 6.61 µM | -72.2%
Clc1ccc(C(c2ccc(Cl)cc2)[n+]2ccn(CC(OCc3ccc(Cl)cc3Cl)c3ccc(Cl)cc3Cl)c2)cc1 (centres undefined) [Calmidazolium chloride] | 10.5 µM | -100%
C=CC(=O)N1CC[C@@H](Oc2nc(Nc3ccc(N4CCC(N5CCN(C)CC5)CC4)cc3)c(C(N)=O)nc2CC)C1 [Naquotinib mesylate] | 3.23 µM | -103%
COC(=O)[C@H]1[C@@H](O)[C@@]2(O)c3c(OC)cc(O[C@@H]4O[C@@H]([C@@H](O)CO)CO[C@H]4OC)cc3O[C@@]2(c2ccc(OC)cc2)[C@@H]1c1ccccc1 [Episilvestrol] | 8.33 µM | -54.9%
C[C@@H]1CN[C@H]2[C@@H](C)[C@@]3(CC[C@H]4[C@@H]5CC[C@@H]6C[C@@H](CC[C@]6(C)[C@H]5C\C4=C(C)\C3)N[S+](C)([O-])=O)O[C@@H]2C1 [Patidegib] | 14.8 µM | -94.4%
O=C(/C=C/c1ccc(Cl)cc1)N1CCC2(CC1)CN(Cc1ccc(Cl)c(Cl)c1)C(=O)O2 | 23.5 µM | -85.1%
Oc1cc(-c2nc(-c3ccccc3)[nH]c2-c2ccncc2)ccc1Cl | 4.17 µM | -90.3%
Cc1ccc(NC(=O)c2ccc(CN3CC[C@H](N(C)C)C3)c(C(F)(F)F)c2)cc1Nc1nccc(-c2cncnc2)n1 [Bafetinib (INNO-406)] | 7.23 µM | -131%
CCOc1cc(N2CCC(O)CC2)ccc1Nc1ncc2c(n1)N(C)c1ccccc1C(=O)N2C [XMD8-92] | 8.33 µM | -80.7%
COC(=O)[C@]12CCC(C)(C)C[C@H]1[C@H]3C(=O)\C=C\4[C@@](C)(CC[C@H]5C(C)(C)C(=O)\C(=C/[C@]45C)C#N)[C@]3(C)CC2 [Bardoxolone methyl] | 7.42 µM | -91.9%
COC1=C(NC2=NC=C(Cl)C(=N2)N[C@@H]3[C@H]\4C[C@@H](\C=C4)[C@H]3C(N)=O)C=CC5=C1CCC(CC5)N6CCOCC6 (some centres undefined) | 4.17 µM | -74.2%
C#CCC(Cc1cnc2nc(N)nc(N)c2n1)c1ccc(C(=O)N[C@@H](CCC(=O)O)C(=O)O)cc1 (some centres undefined) [Pralatrexate] | 0.00468 µM | -91.1%
S=C1N\C=N/C2=C1[NH]C=N2 [6-mercaptopurine] | 1.66 µM | -101%
Cc1c(N)nc([C@H](CC(N)=O)NC[C@@H](N)C(N)=O)nc1C(=O)N[C@H](C(=O)N[C@@H](C)[C@H](O)[C@@H](C)C(=O)N[C@@H](C(=O)NCCc1nc(-c2nc(C(=O)NCCC[S+](C)C)cs2)cs1)[C@@H](C)O)C(O[C@H]1O[C@H](CO)[C@H](O)[C@@H](O)[C@H]1O[C@H]1O[C@H](CO)[C@@H](O)[C@H](OC(N)=O)[C@@H]1O)c1c[nH]cn1 (some centres undefined) [Bleomycin sulfate] | 1.62 µM | -34.2%
Cc1ccc([S+](=O)([O-])Nc2cc(C(F)(F)F)ccc2C(=O)Nc2nc(-c3ccccc3)cs2)cc1 [ML-364] | 4.17 µM | -87%
O[C@H]1CC[C@@H](Oc2cccc3cnc(Nc4ccc5nc[nH]c5c4)nc23)CC1 [NCB-1026] | 0.525 µM | -64.6%
Cn1cnc2c(F)c(Nc3ccc(Br)cc3F)c(C(=O)NOCCO)cc21 [ARRY-162] | 0.468 µM | -60.8%
COc1cc([C@@H]2c3cc4c(cc3[C@@H](O[C@@H]3O[C@@H]5CO[C@@H](c6cccs6)O[C@H]5[C@H](O)[C@H]3O)[C@H]3COC(=O)[C@H]23)OCO4)cc(OC)c1O [Teniposide] | 4.17 µM | -104%
c1ccc(Cn2c(-c3ccc(OCC(C4CCNCC4)n4c(-c5ccccc5)nc5ccccc54)cc3)nc3ccccc32)cc1 (centres undefined) [Deltarasin] | 9.34 µM | -89.7%
CCN1CCN(C(=O)Cc2ccc(Nc3ncc(F)c(Nc4ccc(C(=O)Nc5ccccc5Cl)cc4)n3)cc2)CC1 [Aurora A Inhibitor I] | 7.42 µM | -105%
CO[C@H]1CC[C@H](N2C(=O)CNc3ncc(-c4ccc(C(C)(C)O)nc4)nc32)CC1 [CC-223] | 9.34 µM | -85.5%
Cc1nnn(C)c1-c1cnc2c3ccc(C(C)(C)O)cc3n([C@H](c3ccccc3)C3CCOCC3)c2c1 | 0.0186 µM | -82.9%
Cc1nc(NC(=O)N2CCC[C@H]2C(N)=O)sc1-c1ccnc(C(C)(C)C(F)(F)F)c1 [Alpelisib] | 14.8 µM | -64.3%
C[C@H](NC(=O)[C@@H]1C[C@@H](O)CN1C(=O)[C@@H](NC(=O)COCCCOCCNC(=O)C[C@@H]2\N=C(C3=CC=C(Cl)C=C3)/C4=C(SC(=C4C)C)[N]5C(=NN=C25)C)C(C)(C)C)C6=CC=C(C=C6)C7=C(C)N=CS7 [ARV-771] | 0.148 µM | -91%
O=[S+]([O-])(c1cccc2cnccc12)N1CCCNCC1 [Fasudil hydrochloride] | 18.6 µM | -49.1%
N#Cc1ccc(COC[C@H]2O[C@@H](n3c(NCc4ccc(Cl)c(Cl)c4)nc4c(N)ncnc43)[C@H](O)[C@@H]2O)cc1 | 16.6 µM | -99.6%
